For orientation: Ki means the equilibrium dissociation constant of an inhibitor or competing ligand from its target.

This passage reports Ki results from patent US9453023B2, “Substituted phenyl cycloalkyl pyrrolidine (piperidine) spirolactams and amides, preparation and therapeutic use thereof” (SANOFI, priority 2010, dated 2016).

Counter-ions that a name gives are not always drawn.

For the test, the target named is rhesus (Macacca Mulatta) H3 receptor (Macaca mulatta, UniProt Q865E1). Put plainly: Rhesus H3 radioligand binding assay ([3H]-Methylhistamine, WGA SPA). Also noted: species or system rhesus monkey (Macacca Mulatta). Conditions: displacement of [3H]-Methylhistamine (2 nM) from rhesus H3 receptor membranes; Cheng-Prusoff. Here is the method:
(Genbank #AY231164). Stably transfected cultures were amplified in tissue culture flasks by standard tissue culture methods and induced to express rhesus H3 by exposure to 500 ng/ml tetracycline (Cellgro) for 24 hours. After induction, cells were dissociated from flasks utilizing Cell Stripper (Cellgro). Cells were centrifuged (1K×g, 5 min) and pellet frozen in an ethanol-dry ice bath to disrupt cell membranes. Frozen cell pellet was re-suspended in 5 mM HEPES (pH 7.4, Invitrogen) at 10 ml/1000 cm2 of harvested cells. The cell suspension was drawn through an 18 gauge needle (2-3×) followed by a 23 gauge needle (2-3×) to further disrupt cell membranes. The cell suspension was centrifuged (40K×g, 30 min). Cell membrane pellet was re-suspended in 5 mM HEPES (pH 7.4, Invitrogen) at a final protein concentration of 10 mg/ml. Rhesus H3 membranes were stored under liquid nitrogen prior to use in [3H]-Methylhistamine and GTPγS radioligand binding assays.
Rhesus H3 radioligand binding assay was performed using rhesus H3 receptor membranes (prepared as described above), [3H]-Methylhistamine (Perkin Elmer) and WGA SPA beads (wheat germ agglutinin scintillation proximity assay) beads (Amersham). The assay was performed in 96-well Opti-Plates (Packard). Each reaction contained 50 μl rhesus H3 membranes (20-30 μg total protein), 50 μl WGA SPA beads (0.1 μg) and 50 μl of 83 Ci/mmol [^3H]-Methylhistamine (final concentration 2 nM) and 50 μl of tested compound. The compounds of this invention and/or vehicle were diluted with binding buffer from 10 mM DMSO stocks. Assay plates were sealed with TopSeal (Perkin Elmer) and mixed on shaker (25° C., 1 hour). Assay plates were read on TopCount scintillation counter (Packard). Results were analyzed by Hill transformation and Ki values were determined by Cheng-Prusoff equation.
In general terms: Displacement assays read how much labelled ligand stays bound in the presence of the test substance.

Chain of rhesus (Macacca Mulatta) H3 receptor (Q865E1 1-445): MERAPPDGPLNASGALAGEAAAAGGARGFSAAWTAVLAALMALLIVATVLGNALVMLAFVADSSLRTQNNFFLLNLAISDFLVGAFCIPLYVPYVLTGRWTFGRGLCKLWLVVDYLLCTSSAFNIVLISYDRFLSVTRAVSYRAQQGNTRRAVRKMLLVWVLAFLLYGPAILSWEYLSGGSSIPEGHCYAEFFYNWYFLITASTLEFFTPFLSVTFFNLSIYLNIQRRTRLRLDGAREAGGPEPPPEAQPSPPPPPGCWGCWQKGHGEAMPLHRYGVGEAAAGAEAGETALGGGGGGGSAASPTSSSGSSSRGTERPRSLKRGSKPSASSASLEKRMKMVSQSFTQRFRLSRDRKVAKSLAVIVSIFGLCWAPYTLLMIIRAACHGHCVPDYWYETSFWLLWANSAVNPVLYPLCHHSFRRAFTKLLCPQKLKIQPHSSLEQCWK

Molecule `C[C@H]1CCCN1C1CC[C@H](c2ccc(NC(=O)c3ccc(F)cc3)cc2)C1` (stereo partly drawn) [Example 31, 4-Fluoro-N-{4-[(S)-3-((S)-2-methyl-pyrrolidin-1-yl)-cyclopentyl]-phenyl}-benzamide] had an inhibition constant Ki of 34.9 nM.

In the case of `C[C@H]1CCCN1[C@H]1CC[C@H](c2ccc(N3CCC4(CCNCC4)C3=O)c(F)c2)CC1` [Example 17, 2-{2-Fluoro-4-[4-((S)-2-methyl-pyrrolidin-1-yl)-cyclohexyl]-phenyl}-2,8-diaza-spiro[4.5]decan-1-one hydrochloride], the Ki came out at 84.3 nM. `C[C@H]1CCCN1C1CC[C@H](c2ccc(NC(=O)Cc3ccccc3)cc2)C1` (stereo partly drawn) [Example 37, N-{4-[(S)-3-((S)-2-Methyl-pyrrolidin-1-yl)-cyclopentyl]-phenyl}-2-phenyl-acetamide] registered a Ki of 71.4 nM. For `CC(C)(C)OC(=O)N1CCC2(CC1)CCN(c1ccc([C@H]3CC[C@H](N4CCCC4)CC3)cc1F)C2=O` [Example 13, 2-[2-Fluoro-4-(4-pyrrolidin-1-yl-cyclohexyl)-phenyl]-1-oxo-2,8-diaza-spiro[4.5]decane-8-carboxylic acid tert-butyl ester], the affinity, expressed as Ki, was 379 nM.

With `C[C@H]1CCCN1C1CC[C@H](c2ccc(NS(=O)(=O)c3ccc(F)cc3)cc2)C1` (stereo partly drawn) [Example 24, 4-Fluoro-N-{4-[(S)-3-((S)-2-methyl-pyrrolidin-1-yl)-cyclopentyl]-phenyl}-benzenesulfonamide], the affinity, expressed as Ki, was 12.4 nM. `CC(C)(C)OC(=O)N1CCC2(CC1)CCN(c1ccc([C@H]3CC[C@H](N4CCC4)CC3)cc1F)C2=O` [Example 15, 2-[4-(4-Azetidin-1-yl-cyclohexyl)-2-fluoro-phenyl]-1-oxo-2,8-diaza-spiro[4.5]decane-8-carboxylic acid tert-butyl ester] returned a Ki of 220 nM.

Regarding `O=C1N(c2ccc([C@H]3CC[C@H](N4CCCC4)CC3)cc2F)CCC12CCNCC2` [Example 20, 2-[2-Fluoro-4-(4-pyrrolidin-1-yl-cyclohexyl)-phenyl]-2,8-diaza-spiro[4.5]decan-1-one hydrochloride], the affinity, expressed as Ki, was 137 nM.

On to `C[C@H]1CCCN1C1CC[C@H](c2ccc(NS(=O)(=O)c3ccc(F)c(F)c3)cc2)C1` (stereo partly drawn) [Example 30, 3,4-Difluoro-N-{4-[(S)-3-((S)-2-methyl-pyrrolidin-1-yl)-cyclopentyl]-phenyl}-benzenesulfonamide], for which the inhibitory constant (Ki) amounted to 27.4 nM. The molecule `C[C@H]1CCCN1C1CC=C(c2ccc(NC(=O)OCc3ccccc3)c(F)c2)CC1` (stereo partly drawn) [Example 21, {2-Fluoro-4-[4-((S)-2-methyl-pyrrolidin-1-yl)-cyclohex-1-enyl]-phenyl}-carbamic acid benzyl ester] registered a Ki of 6.88 nM. In the case of `C[C@H]1CCCN1C1CC[C@H](c2ccc(NC(=O)c3ccc(OC(F)(F)F)cc3)cc2)C1` (stereo partly drawn) [Example 36, N-{4-[(S)-3-((S)-2-Methyl-pyrrolidin-1-yl)-cyclopentyl]-phenyl}-4-trifluoromethoxy-benzamide] it was 48.5 nM. With `CC1CCCN1C1CC[C@H](c2ccc(N3CCCC4(CCCC4)C3=O)cc2)C1` (stereo partly shown) [Example 7, 7-{4-[3-(2-Methyl-pyrrolidin-1-yl)-cyclopentyl]-phenyl}-7-aza-spiro[4.5]decan-6-one], the inhibition constant Ki is 27.5 nM. Molecule `CC1CCCN1C1CC[C@H](c2ccc(N3CCC4(CCN(C(=O)OC(C)(C)C)CC4)C3=O)cc2)C1` (stereo partly shown) [Example 6, 2-{4-[3-(2-Methyl-pyrrolidin-1-yl)-cyclopentyl]-phenyl}-1-oxo-2,8-diaza-spiro[4.5]decane-8-carboxylic acid tert-butyl ester] displayed an inhibition constant Ki of 26.8 nM. `C[C@H]1CCCN1C1CC[C@H](c2ccc(NC(=O)c3ccc(Cl)cc3)cc2)C1` (stereo partly drawn) [Example 32, 4-Chloro-N-{4-[(S)-3-((S)-2-methyl-pyrrolidin-1-yl)-cyclopentyl]-phenyl}-benzamide] registered a Ki of 65.5 nM. On to `C[C@@H]1CCCN1[C@H]1CC[C@H](c2ccc(N3CCC4(CCNCC4)C3=O)c(F)c2)CC1` [Example 18, 2-{2-Fluoro-4-[4-((R)-2-methyl-pyrrolidin-1-yl)-cyclohexyl]-phenyl}-2,8-diaza-spiro[4.5]decan-1-one hydrochloride], for which the Ki turned out to be 11.3 nM. In the case of `C[C@H]1CCCN1C1CC[C@H](c2ccc(NC(=O)c3cccs3)cc2)C1` (stereo partly drawn) [Example 23, Thiophene-2-carboxylic acid {4-[(S)-3-((S)-2-methyl-pyrrolidin-1-yl)-cyclopentyl]-phenyl}-amide], the Ki amounted to 46.5 nM. In the case of `Cc1ccc(C(=O)Nc2ccc([C@H]3CCC(N4CCC[C@@H]4C)C3)cc2)cc1` (stereo partly drawn) [Example 34, 4-Methyl-N-{4-[(S)-3-((S)-2-methyl-pyrrolidin-1-yl)-cyclopentyl]-phenyl}-benzamide] it was 98.7 nM; in that of `Cc1ccccc1C(=O)Nc1ccc([C@H]2CCC(N3CCC[C@@H]3C)C2)cc1` (stereo partly drawn) [Example 33, 2-Methyl-N-{4-[(S)-3-((S)-2-methyl-pyrrolidin-1-yl)-cyclopentyl]-phenyl}-benzamide], 32.6 nM; in that of `C[C@H]1CCCN1C1CC[C@H](c2ccc(NC(=O)C3CCOCC3)cc2)C1` (stereo partly drawn) [Example 28, Tetrahydro-pyran-4-carboxylic acid {4-[(S)-3-((S)-2-methyl-pyrrolidin-1-yl)-cyclopentyl]-phenyl}-amide], 33.7 nM. `C[C@H]1CCCN1C1CC[C@H](c2ccc(N3CCC4(CCCCC4)C3=O)cc2)C1` (stereo partly drawn) [Example 2, 2-{4-[(S)-3-((S)-2-Methyl-pyrrolidin-1-yl)-cyclopentyl]-phenyl}-2-aza-spiro[4.5]decan-1-one] gave a Ki of 12.8 nM. Regarding `CC(=O)N1CCC(C(=O)Nc2ccc([C@H]3CCC(N4CCC[C@@H]4C)C3)cc2)CC1` (stereo partly drawn) [Example 22, 1-Acetyl-piperidine-4-carboxylic acid {4-[(S)-3-((S)-2-methyl-pyrrolidin-1-yl)-cyclopentyl]-phenyl}-amide], the Ki was 118 nM. On to `C[C@@H]1CCCN1[C@H]1CC[C@H](c2ccc(N3CCC4(CCOCC4)C3=O)cc2)CC1` [Example 10, 2-{4-[4-((R)-2-Methyl-pyrrolidin-1-yl)-cyclohexyl]-phenyl}-8-oxa-2-aza-spiro[4.5]decan-1-one], for which the Ki amounted to 35.3 nM.

`CC1CCCN1C1CC[C@H](c2ccc(NC(=O)OCc3ccccc3)cc2)C1` (stereo partly drawn) [Intermediate (10), {4-[(S)-3-(2-Methyl-pyrrolidin-1-yl)-cyclopentyl]-phenyl}-carbamic acid benzyl ester]: the inhibition constant Ki amounted to 65.4 nM. Molecule `O=C1N(c2ccc([C@H]3CC[C@H](N4CCC4)CC3)cc2F)CCC12CCNCC2` [Example 19, 2-[4-(4-Azetidin-1-yl-cyclohexyl)-2-fluoro-phenyl]-2,8-diaza-spiro[4.5]decan-1-one hydrochloride] gave a Ki of 82.2 nM.

With `CC1CCCN1C1CC[C@H](c2ccc(N3CCCC4(CCN(C(=O)OC(C)(C)C)CC4)C3=O)cc2)C1` (stereo partly shown) [Example 3, 2-{4-[3-(2-Methyl-pyrrolidin-1-yl)-cyclopentyl]-phenyl}-1-oxo-2,9-diaza-spiro[5.5]undecane-9-carboxylic acid tert-butyl ester], the Ki was 17.9 nM. For the molecule `C[C@H]1CCCN1[C@H]1CC[C@H](c2ccc(N3CCC4(CCOCC4)C3=O)cc2)CC1` [Example 12, 2-{4-[4-((S)-2-Methyl-pyrrolidin-1-yl)-cyclohexyl]-phenyl}-8-oxa-2-aza-spiro[4.5]decan-1-one], the affinity, expressed as Ki, was 6.1 nM. For the molecule `CC1CCCN1C1CC[C@H](c2ccc(N3CCCC4(CCNCC4)C3=O)cc2)C1` (stereo partly shown) [Example 8, 2-{4-[3-(2-Methyl-pyrrolidin-1-yl)-cyclopentyl]-phenyl}-2,9-diaza-spiro[5.5]undecan-1-one hydrochloride], the affinity corresponds to a Ki of 6.07 nM.

In the case of `C[C@H]1CCCN1C1CC[C@H](c2ccc(NC(=O)c3ccccc3OC(F)(F)F)cc2)C1` (stereo partly drawn) [Example 35, N-{4-[(S)-3-((S)-2-Methyl-pyrrolidin-1-yl)-cyclopentyl]-phenyl}-2-trifluoromethoxy-benzamide], the affinity corresponds to a Ki of 136 nM.

Consider `O=C1N(c2ccc([C@H]3CC[C@H](N4CCCC4)CC3)cc2)CCC12CCOCC2` [Example 9, 2-[4-(4-Pyrrolidin-1-yl-cyclohexyl)-phenyl]-8-oxa-2-aza-spiro[4.5]decan-1-one], for which the affinity corresponds to a Ki of 112 nM. In turn, `C[C@H]1CCCN1C1CC[C@H](c2ccc(N3CCC4(CCOCC4)C3=O)cc2)C1` (stereo partly drawn) [Example 1, 2-{4-[(S)-3-((S)-2-Methyl-pyrrolidin-1-yl)-cyclopentyl]-phenyl}-8-oxa-2-aza-spiro[4.5]decan-1-one] had a Ki of 11.9 nM. The molecule `C[C@H]1CCCCN1[C@H]1CC[C@H](c2ccc(N3CCC4(CCOCC4)C3=O)cc2)CC1` [Example 11, 2-{4-[4-((S)-2-Methyl-piperidin-1-yl)-cyclohexyl]-phenyl}-8-oxa-2-aza-spiro[4.5]decan-1-one] displayed a Ki of 39.4 nM.

Take `Cc1ccc(F)cc1C(=O)Nc1ccc([C@H]2CCC(N3CCC[C@@H]3C)C2)cc1` (stereo partly drawn) [Example 25, 5-Fluoro-2-methyl-N-{4-[(S)-3-((S)-2-methyl-pyrrolidin-1-yl)-cyclopentyl]-phenyl}-benzamide]: affinity was put at a Ki of 45.7 nM.
